# Measured values taken from article PMC3549755, “A comparison of the ability of rilpivirine (TMC278) and selected analogues to inhibit clinically relevant HIV-1 reverse transcriptase mutants” (Retrovirology, 2012).
# Where two headings read alike, the source gives them in different places.
# Assays:
# [1] = tested on: viral vector with K103N/Y181C double mutant HIV-1 RT; test: single-round infectivity assay, luciferase reporter, K103N/Y181C RT vector; format: cell-based; details: for EC50: Human immunodeficiency virus 1, broader panel, SD in parentheses
# Source text: (§1) We examined the effects of rilpivirine and the analogues on HIV-1 replication using a previously described assay and report the concentrations at which luciferase reporter activity was reduced by half relative to uninhibited controls (EC50) with standard deviations in parentheses. In the assay, viral vectors that replicate using WT HIV reverse transcriptase or one of several mutants (L100I, K103N, V106A, E138K, Y181C, Y188L, H221Y and the double mutant K103N/Y181C) were used to infect cells in a single round assay. These mutants were chosen either because they are known NNRTI resistance mutations (L100I, K103N, Y181C, and the K103N/Y181C double mutant), they were selected in patients in rilpivirine clinical trials (E138K and H221Y), or they are positioned to make significant Van der Waals contacts with rilpivirine (V106A and Y188L). All compounds were initially screened against a panel that included at least one RT mutant from all three groups (WT, K103N, E138K, Y181C and Y188L). The cytotoxicity of the compounds was also determined to establish the therapeutic index of each of the compounds.
# (§2) Procedures for virion production and cell-based assay have been reported. Briefly, all cell cultures were maintained in Dulbecco’s modified Eagle’s medium (Invitrogen, Carlsbad, CA) with 5% (v/v) fetal bovine serum, 5% newborn calf serum, penicillin (50 units/mL) and streptomycin (50 μg/mL) (Quality Biological, Gaithersburg, MD). […]. Transfected cells were incubated at 37°C for 8 hrs, washed twice with PBS, fresh media was added and the cells were returned to the incubator for 48 hrs. The pNLNgoMIVR^+ΔEnv.LUC plasmid encodes the HIV-1 genome with an Env deletion and either WT HIV-1 RT, or one of the following mutants: L100I, K103N, V106A, E138K, Y181C, Y188L, H221Y, or K103N/Y181C. Supernatants from each plate were clarified by low-speed centrifugation (3,000xg for 20 min), then treated with 200 U DNase I (Roche Applied Science, Mannheim, Germany) at room temperature for 3 hours. Viral supernatants were stored at −20°C until used.
# (§3) One day prior to infection, 100 μL of human osteosarcoma (HOS) cells were added to each well of a 96-well plate at a density of 4x10^4 cells/mL. Plates were incubated overnight at 37°C. On the day of infection, 10X drug stocks were prepared by serial dilution in media from an initial 10 mM stock solution in DMSO. Cells in the 96-well plate were pre-treated by the addition of 22 μL of the appropriate drug stock and returned to the incubator for 3 hours. Thawed virus stocks were diluted 1:2 in media, then 100 μL of virus was added to the pre-treated cells, bringing the final drug concentrations to 0.1 nM to 100 nM, with DMSO-treated cells (no drug) serving as a reference. In addition, 12 wells of cells treated with media and no virus served as negative controls. Plates were returned to the incubator for an additional 42 hours, at which time the luciferase activity was determined using Steady-Lite Plus kits (PerkinElmer, Waltham, MA). Background luciferase activity, as measured for the negative controls, was subtracted from the activities measured for each infected well. Drug-free, DMSO-treated wells were normalized to 100% infectivity. Infectivity at each drug concentration was determined as a percentage of these drug-free infections. Drug concentration versus percent infectivity was plotted for each RT-inhibitor combination, and the data were fit to a four-parameter sigmoidal curve using KaleidaGraph 4.0 (Synergy Software, Reading, PA). The inflection point of each curve is reported as the IC50. All values are the mean of triplicate infections.
# [2] = tested on: viral vector with V106A mutant HIV-1 RT; test: single-round infectivity assay, luciferase reporter, V106A RT vector; format: cell-based; details: Human immunodeficiency virus 1; broader panel, SD in parentheses
# Source text: as §1, §2, §3
# [3] = cytotoxicity assay (ATP-Lite cell viability); format: cell-based, human; details: human, HOS cells, 48 hours, SD in parentheses
# Protocol: (§4) One day prior to treatment, HOS cells were prepared in 96-well plates as described for the infectivity assays, except that 12 wells per plate were treated with cell-free media to serve as negative controls. The following day, serial dilutions of drug stocks were prepared in media from 10 mM stocks in DMSO. Each well received 11 μL of the appropriate drug concentration or DMSO-treated, drug-free media. Final drug concentrations ranged from 0.5 μM to 300 μM. The drug-free wells served as references. Plates were then incubated at 37°C for 48 hours. Cell viability was determined using luciferase reporter ATP-Lite kits (PerkinElmer). As described for the infectivity assays, drug-free reference wells were normalized to 100%, and viabilities at different drug concentrations were determined as a percentage of these references. Data were plotted and analyzed in the same manner as the IC50 data, with the inflection points of the curves reported as CC50.
# [4] = tested on: HOS cells; test: cytotoxicity assay (ATP-Lite cell viability); format: cell-based, human; details: for Therapeutic Index (T.I.): ratio of CC50/EC50 (WT)
# Protocol: as §4
# [5] = tested on: viral vector with Y188L mutant HIV-1 RT; test: single-round infectivity assay, luciferase reporter, Y188L RT vector; format: cell-based; details: for EC50: Human immunodeficiency virus 1, HOS cells, reduction of luciferase reporter activity, SD in parentheses
# Source text: as §1, §2, §3
# [6] = tested on: viral vector with L100I mutant HIV-1 RT; test: single-round infectivity assay, luciferase reporter, L100I RT vector; format: cell-based; details: Human immunodeficiency virus 1; broader panel, SD in parentheses
# Source text: as §1, §2, §3
# [7] = tested on: viral vector with H221Y mutant HIV-1 RT; test: single-round infectivity assay, luciferase reporter, H221Y RT vector; format: cell-based; details: Human immunodeficiency virus 1; broader panel, SD in parentheses
# Source text: as §1, §2, §3
# [8] = tested on: viral vector with K103N mutant HIV-1 RT; test: single-round infectivity assay, luciferase reporter, K103N RT vector; format: cell-based; details: Human immunodeficiency virus 1; HOS cells, reduction of luciferase reporter activity, SD in parentheses
# Source text: as §1, §2, §3
# [9] = tested on: viral vectors that replicate using WT HIV reverse transcriptase; test: single-round infectivity assay, luciferase reporter, vector with WT RT; format: cell-based, HIV-1; details: SD in parentheses
# Source text: as §1, §2, §3
# [10] = tested on: viral vector with Y181C mutant HIV-1 RT; test: single-round infectivity assay, luciferase reporter, Y181C RT vector; format: cell-based; details: Human immunodeficiency virus 1; HOS cells, reduction of luciferase reporter activity, SD in parentheses
# Source text: as §1, §2, §3
# [11] = tested on: viral vector with E138K mutant HIV-1 RT; test: single-round infectivity assay, luciferase reporter, E138K RT vector; format: cell-based; details: for EC50: Human immunodeficiency virus 1, HOS cells, reduction of luciferase reporter activity, SD in parentheses; for loss of potency against E138K: compared with rilpivirine (1)
# Source text: as §1, §2, §3
# [12] = HOS cells, reduction of luciferase reporter activity, read-out: EC50 WT
# [13] = Human immunodeficiency virus 1, HOS, HOS cells, reduction of luciferase reporter activity, read-out: EC50 WT
# [14] = Human immunodeficiency virus 1, broader panel table, read-out: EC50 WT (Table S1)
SMILES,EC50 [1],fold resistance / loss of potency against K103N/Y181C double mutant ([1]; relative to WT),EC50 [2],CC50 at 48 h [3],Therapeutic Index (T.I.) [4],EC50 [5],EC50 [6],EC50 [7],EC50 [8],"EC50 [9, 12]","EC50 [9, 13]",EC50 [10],EC50 [11],"EC50 [9, 14]","CC50 ([4]; HOS cells, 48 hours, SD in parentheses)",loss of potency against E138K [11],loss of potency against Y188L ([5]; compared with rilpivirine (1))
"Cc1cc(/C=C/C#N)cc(C)c1Nc1ccnc(Nc2ccc(C#N)cc2)n1 [Analogue 1, rilpivirine]",3.1 nM,~ 8 fold,0.1 nM,10000 ± 600 nM,2.5x10^4,2.3 ± 0.2 nM,< 0.1 nM,0.4 nM,0.2 nM,0.2 nM,0.4 ± 0.02 nM,1.3 nM,0.3 nM,–,–,–,–
Cc1cc(/C=C/C#N)cc(C)c1Nc1nc(Nc2ccc(C#N)cc2)ncc1[N+](=O)[O-] [Analogue 6],27 nM,–,0.1 nM,24000 nM,1.2x10^5,6.8 ± 0.5 nM,< 0.1 nM,0.4 nM,0.2 nM,–,–,2.1 nM,1.4 nM,0.2 nM,–,–,–
Cc1cc(/C=C/C#N)cc(C)c1Nc1nc(Nc2ccc(C#N)cc2)ncc1N [Analogue 7],2.2 nM,–,0.1 nM,50000 nM,2.5x10^5,2.3 ± 0.1 nM,0.1 nM,0.9 nM,0.3 nM,–,–,1.1 nM,1.3 nM,0.2 nM,> 38000 nM,four- to fourteen-fold,–
Cc1cc(/C=C/C#N)cc(C)c1Nc1ncc([N+](=O)[O-])c(Nc2ccc(C#N)cc2)n1 [Analogue 8],86 nM,–,0.3 nM,–,1.0x10^5,13 nM,0.2 nM,2.6 nM,1 nM,–,–,5.3 nM,4.9 nM,0.9 nM,–,–,–
COc1ccc(Cn2cnc3c(Nc4c(C)cc(/C=C/C#N)cc4C)nc(Nc4ccc(C#N)cc4)nc32)cc1 [Analogue 10],–,–,–,154000 nM,1.4x10^5,> 100 nM,–,–,1 nM,–,1.1 nM,9.5 nM,14 nM,–,–,–,–
Cc1cc(/C=C/C#N)cc(C)c1Nc1nc(Nc2ccc(C#N)cc2)nc2[nH]cnc12 [Analogue 11],1.2 nM,–,0.4 nM,–,1.2x10^6,13 ± 0.5 nM,< 0.1 nM,0.4 nM,0.1 nM,–,–,0.5 nM,2.9 nM,0.1 nM,–,four- to fourteen-fold,nearly six-fold
COc1ccc(Cn2cnc3c(Nc4ccc(C#N)cc4)nc(Nc4c(C)cc(/C=C/C#N)cc4C)nc32)cc1 [Analogue 12],–,–,–,83000 nM,3.1x10^4,12 nM,–,–,1.9 nM,–,2.7 nM,6.5 nM,15 nM,–,–,–,–
CC(=O)c1ccc(Nc2nc(Nc3c(C)cc(/C=C/C#N)cc3C)nc3[nH]cnc23)cc1 [Analogue 14],–,–,–,8000 nM,2.7x10^4,64 nM,–,–,0.3 nM,–,0.3 nM,5.9 nM,1.5 nM,–,–,–,–
Cc1cc(/C=C/C#N)cc(C)c1Nc1nc(Nc2ccc(C(F)(F)F)cc2)c2nc[nH]c2n1 [Analogue 15],–,–,–,17000 nM,1.1x10^4,17 nM,–,–,0.9 nM,–,1.5 nM,3.3 nM,4.7 nM,–,–,–,–
COc1ccc(Nc2nc(Nc3c(C)cc(/C=C/C#N)cc3C)nc3[nH]cnc23)cc1 [Analogue 16],–,–,–,12000 nM,6.0x10^4,29 nM,–,–,0.2 nM,0.4 nM,0.2 nM,2.3 nM,1.1 nM,–,–,–,–
Cc1cc(/C=C/C#N)cc(C)c1Nc1nc(Nc2ccc(F)cc2)c2nc[nH]c2n1 [Analogue 17],–,–,–,12000 nM,7.1x10^3,15 nM,–,–,1.3 nM,–,1.7 nM,2 nM,3.1 nM,–,–,–,–
Cc1cc(/C=C/C#N)cc(C)c1Nc1nc(Nc2cc(F)cc(F)c2)c2nc[nH]c2n1 [Analogue 18],–,–,–,13000 nM,1.4x10^3,> 100 nM,–,–,4.9 nM,–,9.3 nM,56 nM,28 nM,–,–,–,–
Cc1cc(/C=C/C#N)cc(C)c1Nc1nc(Nc2ccccn2)c2nc[nH]c2n1 [Analogue 19],–,–,–,36000 nM,< 3.6x10^2,> 100 nM,–,–,> 100 nM,–,> 100 nM,> 100 nM,> 100 nM,–,–,–,–
Cc1nc2cc(Nc3nc(Nc4c(C)cc(/C=C/C#N)cc4C)nc4[nH]cnc34)ccc2s1 [Analogue 22],–,–,–,57000 nM,9.5x10^4,> 100 nM,–,–,2.2 nM,–,0.6 nM,6.1 nM,8.3 nM,–,–,–,–
Cc1cc(/C=C/C#N)cc(C)c1Nc1nc(Nc2ccc3c(c2)CCC3)c2nc[nH]c2n1 [Analogue 23],–,–,–,30000 nM,7.5x10^4,> 100 nM,–,–,1.7 nM,–,0.4 nM,4.1 nM,7.9 nM,–,–,–,–
Cc1cc(/C=C/C#N)cc(C)c1Nc1nc(Nc2ccc3c(c2)OCO3)c2nc[nH]c2n1 [Analogue 24],–,–,–,19000 nM,1.9x10^5,23 nM,–,–,0.6 nM,–,0.1 nM,3 nM,1.6 nM,–,–,–,–
Cc1cc(/C=C/C#N)cc(C)c1Nc1nc(Nc2ccc3nn[nH]c3c2)c2nc[nH]c2n1 [Analogue 25],–,–,–,100000 nM,5.3x10^3,> 100 nM,–,–,> 100 nM,–,19 nM,> 100 nM,> 100 nM,–,–,–,–
